Experiments:
BXPC-3 [1] = assay: Antiproliferative activity against human BXPC-3 cells assessed as inhibition of cell proliferation treated for 72 hrs by resazurin dye-based fluorescence assay; assay type: functional; conditions: BXPC-3, 72 h
MIA PaCa-2 = assay: Antiproliferative activity against human MIA PaCa-2 cells assessed as inhibition of cell proliferation treated for 72 hrs by resazurin dye-based fluorescence assay; assay type: functional; conditions: MIA PaCa-2, 72 h
MM1.S = assay: Antiproliferative activity against human MM1.S cells assessed as inhibition of cell proliferation treated for 72 hrs by resazurin dye-based fluorescence assay; assay type: functional
MV4-11 = assay: Antiproliferative activity against human MV4-11 cells assessed as inhibition of cell proliferation treated for 72 hrs by resazurin dye-based fluorescence assay; assay type: functional; conditions: MV4-11, 72 h
Huh-7 = assay: Antiproliferative activity against human Huh-7 cells assessed as inhibition of cell proliferation treated for 72 hrs by resazurin dye-based fluorescence assay; assay type: functional; conditions: Huh-7, 72 h
CWR22R [2] = assay: Antiproliferative activity against human 22Rv1 cells assessed as inhibition of cell proliferation treated for 72 hrs by resazurin dye-based fluorescence assay; assay type: functional; conditions: 22Rv1, 72 h
[3] = Clearance in Beagle dog at 1 mg/kg, iv measured for 0.083 to 24 hrs by LC-MS/MS analysis; assay type: ADME, organism-based, Canis lupus familiaris; conditions: in vivo, time 0.083-24 hrs
[4] = AUC (0 to infinity) in Beagle dog at 1 mg/kg, iv measured for 0.083 to 24 hrs by LC-MS/MS analysis; assay type: ADME, organism-based, Canis lupus familiaris; parameters: time upper 24 hrs, time lower 0.083 hrs, dose 1 mg/kg, route iv; conditions: in vivo
[5] = Cmax in Beagle dog at 1 mg/kg, iv measured for 0.083 to 24 hrs by LC-MS/MS analysis; assay type: ADME, organism-based, Canis lupus familiaris; parameters: time upper 24 hrs, time lower 0.083 hrs, dose 1 mg/kg, route iv; conditions: in vivo
[6] = Half life in Beagle dog at 1 mg/kg, iv measured for 0.083 to 24 hrs by LC-MS/MS analysis; assay type: ADME, organism-based, Canis lupus familiaris; conditions: in vivo, time 0.083-24 hrs
JeKo-1 = assay: Antiproliferative activity against human JeKo-1 cells assessed as inhibition of cell proliferation treated for 72 hrs by resazurin dye-based fluorescence assay; assay type: functional; conditions: JeKo-1, 72 h
[7] = Toxicity in castrated male nude Balb/c mouse xenografted with human 22Rv1 cells assessed as toxic signs at 50 mg/kg, ip administered twice a week measured after 28 days; assay type: organism-based, CWR22R; conditions: in vivo, 672 h, time 28 day
CWR22R [8] = assay: In vivo antitumor activity against human 22Rv1 cells xenografted in castrated male nude Balb/c mouse assessed as relative increment ratio at 50 mg/kg, ip administered twice a week measured after 28 days relative to control; assay type: functional; conditions: time 28 day
[9] = Toxicity in castrated male nude Balb/c mouse xenografted with human 22Rv1 cells assessed as tolerance at 50 mg/kg, ip administered twice a week measured after 28 days; assay type: organism-based, CWR22R; conditions: in vivo, 672 h, time 28 day
CWR22R [10] = assay: In vivo antitumor activity against human 22Rv1 cells xenografted in castrated male nude Balb/c mouse assessed as tumor growth inhibition at 50 mg/kg, ip administered twice a week measured after 28 days relative to control; assay type: functional; conditions: 22Rv1, 672 h, time 28 day, read-out: TGI
BXPC-3 [11] = assay: Induction of apoptosis in human BXPC-3 cells assessed as early cells at 100 nM incubated for 24 hrs by […] (reference value: 1.68 %); assay type: functional
[12] = Toxicity in castrated male nude Balb/c mouse xenografted with human 22Rv1 cells assessed as animal weight loss at 50 mg/kg, ip administered twice a week measured after 28 days; assay type: organism-based, CWR22R; conditions: in vivo, 672 h, time 28 day
BXPC-3 [13] = assay: Induction of apoptosis in human BXPC-3 cells assessed as viable cells at 100 nM incubated for 24 hrs by […] (reference value: 93.51 %); assay type: functional; conditions: read-out: Activity
BXPC-3 [14] = assay: Induction of apoptosis in human BXPC-3 cells assessed as necrotic cells at 100 nM incubated for 24 hrs by […] (reference value: 3.57 %); assay type: functional
BXPC-3 [15] = assay: Induction of apoptosis in human BXPC-3 cells assessed as late cells at 100 nM incubated for 24 hrs by […] (reference value: 1.24 %); assay type: functional

Row | Compound | IC50 (BXPC-3 [1]) [nM] | IC50 (MIA PaCa-2) [nM] | IC50 (MM1.S) [nM] | IC50 (MV4-11) [nM] | IC50 (Huh-7) [nM] | IC50 (CWR22R [2]) [nM] | IC50 (JeKo-1) [nM] | other results
1 | C[C@H](NP(=O)(OC[C@H]1O[C@@H](n2ccc(N)nc2=O)C(F)(F)[C@@H]1O)Oc1ccccc1)C(=O)OC1CCCCC1 (stereo not given in full) | > 1000 | 540 | 130 | – | – | – | – | –
2 | CC(C)OC(=O)COP1(=O)OC[C@H]2O[C@@H](n3ccc(N)nc3=O)C(F)(F)[C@@H]2O1 (stereo not given in full) | 47.5 | 24.2 | 5.4 | 4.9 | 26.1 | 15 | 23.4 | –
3 | CCCC(CCC)C(=O)Nc1ccn([C@@H]2O[C@H](COP(=O)(N[C@@H](C)C(=O)OC(C)C)OCC(=O)OC)[C@@H](O)C2(F)F)c(=O)n1 (stereo not given in full) | > 1000 | > 1000 | > 1000 | – | – | – | – | –
4 | CC(C)OC(=O)[C@H](C)NP(=O)(OC[C@H]1O[C@@H](n2ccc(N)nc2=O)C(F)(F)[C@@H]1O)Oc1ccccc1 (stereo not given in full) | > 1000 | 710 | 500 | – | – | – | – | –
5 | CCCC(CCC)C(=O)Nc1ccn([C@@H]2O[C@H](COP(=O)(N[C@@H](C)C(=O)OCc3ccccc3)Oc3ccccc3)[C@@H](O)C2(F)F)c(=O)n1 (stereo not given in full) | > 1000 | > 1000 | > 1000 | – | – | – | – | –
6 | C[C@H](NP(=O)(OC[C@H]1O[C@@H](n2ccc(N)nc2=O)C(F)(F)[C@@H]1O)Oc1ccccc1)C(=O)OCc1ccccc1 (stereo not given in full) [FOSGEMCITABINE PALABENAMIDE] | 230 | 142 | 31.1 | 61 | 350 | 130 | 160 | Activity [7]: Non-Toxic; T/C (CWR22R [8]): 51.9%; Activity [9]: Non-Toxic; inhibition in vivo at 50 mg/kg (CWR22R [10]): 55.6%; Activity (BXPC-3 [11]): 1.52%; Activity [12]: Non-Toxic; viability at 0.1 µM (BXPC-3 [13]): 88.7%; Activity (BXPC-3 [14]): 7.48%; Activity (BXPC-3 [15]): 2.3%
7 | COC(=O)COP1(=O)OC[C@H]2O[C@@H](n3ccc(N)nc3=O)C(F)(F)[C@@H]2O1 (stereo not given in full) | 31.1 | 13.6 | 2.7 | 5.8 | 23 | 21.5 | 23.2 | –
8 | CCOC(=O)COP1(=O)OC[C@H]2O[C@@H](n3ccc(N)nc3=O)C(F)(F)[C@@H]2O1 (stereo not given in full) | 22.6 | 16.3 | 3.9 | 6.1 | 38.4 | 20.5 | 31.6 | –
9 | Nc1ccn([C@@H]2O[C@@H]3COP(=O)(OCCCCC(=O)OCc4ccccc4)O[C@H]3C2(F)F)c(=O)n1 (stereo not given in full) | 213 | 50.9 | – | – | – | – | – | –
10 | COC(=O)[C@H](C)NP(=O)(OC[C@H]1O[C@@H](n2ccc(N)nc2=O)C(F)(F)[C@@H]1O)Oc1ccccc1 (stereo not given in full) | > 1000 | 553 | 110 | – | – | – | – | –
11 | CCC(=O)Nc1ccn([C@@H]2O[C@@H]3COP(=O)(OCC(=O)OCc4ccccc4)O[C@H]3C2(F)F)c(=O)n1 (stereo not given in full) | 908 | 530 | – | – | – | – | – | –

Further lines, with some results ahead:

Row | IC50 (BXPC-3 [1]) [nM] | IC50 (MIA PaCa-2) [nM] | IC50 (MM1.S) [nM] | IC50 (MV4-11) [nM] | IC50 (Huh-7) [nM] | Compound | IC50 (CWR22R [2]) [nM] | IC50 (JeKo-1) [nM] | other results
12 | 78.3 | 35.7 | – | – | – | Nc1ccn([C@@H]2O[C@@H]3COP(=O)(OCCCC(=O)OCc4ccccc4)O[C@H]3C2(F)F)c(=O)n1 (stereo not given in full) | – | – | –
13 | 64.5 | – | 17.3 | 10.3 | 69 | Nc1ccn([C@@H]2O[C@H](COP(=O)(O)OCC(=O)OCc3ccccc3)[C@@H](O)C2(F)F)c(=O)n1 | 43.2 | – | clearance [3]: 28.4 mL/min/kg; AUC(0-inf) [4]: 637 ng·h/mL; Cmax [5]: 2560 ng/mL; half-life [6]: 35.2 min
14 | 35.2 | 27 | 4.1 | 5.8 | 28.2 | COC(=O)COP(=O)(N[C@@H](C)C(=O)OCc1ccccc1)OC[C@H]1O[C@@H](n2ccc(N)nc2=O)C(F)(F)[C@@H]1O (stereo not given in full) | – | 22.6 | –
15 | 15 | – | 6 | 4.1 | 22 | Nc1ccn([C@@H]2O[C@@H]3CO[P@@](=O)(OCC(=O)OCc4ccccc4)O[C@H]3C2(F)F)c(=O)n1 | 8.1 | – | –
16 | 64.5 | – | 17.3 | 10.3 | 69 | Nc1ccn([C@@H]2O[C@H](CO)[C@@H](OP(=O)(O)OCC(=O)OCc3ccccc3)C2(F)F)c(=O)n1 | 43.2 | – | clearance [3]: 28.4 mL/min/kg; AUC(0-inf) [4]: 637 ng·h/mL; Cmax [5]: 2560 ng/mL; half-life [6]: 35.2 min
17 | 68.4 | 29 | – | – | – | Nc1ccn([C@@H]2O[C@@H]3COP(=O)(OCCC(=O)OCc4ccccc4)O[C@H]3C2(F)F)c(=O)n1 (stereo not given in full) | – | – | –
18 | 40.5 | 29.4 | 4.7 | 3.5 | 41.1 | COC(=O)COP(=O)(N[C@@H](C)C(=O)OC(C)C)OC[C@H]1O[C@@H](n2ccc(N)nc2=O)C(F)(F)[C@@H]1O (stereo not given in full) | – | 26.2 | –
19 | 14.5 | – | 5 | 3.8 | 22 | Nc1ccn([C@@H]2O[C@@H]3CO[P@](=O)(OCC(=O)OCc4ccccc4)O[C@H]3C2(F)F)c(=O)n1 | 10.6 | – | –
